Experimental data taken from patent US20230295167A1, “POTENT AND SELECTIVE INHIBITORS OF HER2” (DANA-FARBER CANCER INSTITUTE, INC., priority 2020, published 2023).

Legend:
Assay type in all cases: cell-based
Conditions in all cases: 72 hours
EFGR WT (Ba/F3 cells) = target: T1, EFGR WT (Ba/F3 cells) (Homo sapiens, UniProt P00533); test: MTS assay, Ba/F3 cells, EFGR WT
T1 construct: expressed in transfected cells; host or cells: Ba/F3
Method: (§1) The IC50 values of the compounds provided herein were measured against kinases in Ba/F3 cells.
(§2) Activities of representative compounds of the present application in inhibiting EGFR and HER2 were tested by MTS assay (abcam®) for Ba/F3 cells. For assays with Ba/F3 cells, 3000 cells were seeded for per well in 96-well plates and were exposed to the indicated compounds with a concentration of 3.3 to 10 μM for 72 hours.

EFGR SVD (Ba/F3 cells) = target: T2, EFGR SVD (Ba/F3 cells) (Homo sapiens, UniProt P00533, INS770SVD); test: MTS assay, Ba/F3 cells, EFGR SVD
T2 construct: expressed in transfected cells; host or cells: Ba/F3
Method: as §1, §2

EFGR ASV (Ba/F3 cells) = target: T3, EFGR ASV (Ba/F3 cells) (Homo sapiens, UniProt P00533, INS769ASV); test: MTS assay, Ba/F3 cells, EFGR ASV
T3 construct: expressed in transfected cells; host or cells: Ba/F3
T3 sequence (P00533 with tags, fused parts or gaps INS769ASV): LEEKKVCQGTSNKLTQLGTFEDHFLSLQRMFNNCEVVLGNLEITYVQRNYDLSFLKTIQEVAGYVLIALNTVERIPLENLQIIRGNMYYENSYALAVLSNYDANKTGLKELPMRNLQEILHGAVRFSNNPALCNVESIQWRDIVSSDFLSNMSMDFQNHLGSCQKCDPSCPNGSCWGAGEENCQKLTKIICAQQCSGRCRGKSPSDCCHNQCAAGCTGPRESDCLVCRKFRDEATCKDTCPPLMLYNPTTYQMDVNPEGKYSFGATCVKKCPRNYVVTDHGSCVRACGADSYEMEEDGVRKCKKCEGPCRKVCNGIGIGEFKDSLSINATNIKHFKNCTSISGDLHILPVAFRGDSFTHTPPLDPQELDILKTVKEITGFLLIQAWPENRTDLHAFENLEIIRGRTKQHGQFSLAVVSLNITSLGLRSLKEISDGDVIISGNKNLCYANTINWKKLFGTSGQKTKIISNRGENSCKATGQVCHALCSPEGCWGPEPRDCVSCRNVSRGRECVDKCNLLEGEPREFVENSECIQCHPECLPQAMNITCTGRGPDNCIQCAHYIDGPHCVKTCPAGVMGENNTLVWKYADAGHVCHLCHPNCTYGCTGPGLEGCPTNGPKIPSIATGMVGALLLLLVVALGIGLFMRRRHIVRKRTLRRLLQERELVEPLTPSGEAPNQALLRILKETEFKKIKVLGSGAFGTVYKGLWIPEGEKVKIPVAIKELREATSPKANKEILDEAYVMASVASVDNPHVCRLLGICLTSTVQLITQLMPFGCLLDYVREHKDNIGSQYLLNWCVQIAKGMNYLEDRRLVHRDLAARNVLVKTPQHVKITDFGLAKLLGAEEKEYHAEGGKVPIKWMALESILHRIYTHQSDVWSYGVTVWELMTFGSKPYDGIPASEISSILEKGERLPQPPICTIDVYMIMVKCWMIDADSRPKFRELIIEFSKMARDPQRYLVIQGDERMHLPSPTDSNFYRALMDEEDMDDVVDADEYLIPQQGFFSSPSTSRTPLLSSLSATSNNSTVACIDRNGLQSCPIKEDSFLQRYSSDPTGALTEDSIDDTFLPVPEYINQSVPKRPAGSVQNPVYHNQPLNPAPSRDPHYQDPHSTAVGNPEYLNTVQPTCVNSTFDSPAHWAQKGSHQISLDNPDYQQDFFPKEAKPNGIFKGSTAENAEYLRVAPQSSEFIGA
Method: as §1, §2

HER2 WT (Ba/F3 cells) = target: T4, HER2 WT (Ba/F3 cells) (Homo sapiens, UniProt P04626); test: MTS assay, Ba/F3 cells, HER2 WT
T4 construct: expressed in transfected cells; host or cells: Ba/F3
T4 sequence (P04626 23-1255): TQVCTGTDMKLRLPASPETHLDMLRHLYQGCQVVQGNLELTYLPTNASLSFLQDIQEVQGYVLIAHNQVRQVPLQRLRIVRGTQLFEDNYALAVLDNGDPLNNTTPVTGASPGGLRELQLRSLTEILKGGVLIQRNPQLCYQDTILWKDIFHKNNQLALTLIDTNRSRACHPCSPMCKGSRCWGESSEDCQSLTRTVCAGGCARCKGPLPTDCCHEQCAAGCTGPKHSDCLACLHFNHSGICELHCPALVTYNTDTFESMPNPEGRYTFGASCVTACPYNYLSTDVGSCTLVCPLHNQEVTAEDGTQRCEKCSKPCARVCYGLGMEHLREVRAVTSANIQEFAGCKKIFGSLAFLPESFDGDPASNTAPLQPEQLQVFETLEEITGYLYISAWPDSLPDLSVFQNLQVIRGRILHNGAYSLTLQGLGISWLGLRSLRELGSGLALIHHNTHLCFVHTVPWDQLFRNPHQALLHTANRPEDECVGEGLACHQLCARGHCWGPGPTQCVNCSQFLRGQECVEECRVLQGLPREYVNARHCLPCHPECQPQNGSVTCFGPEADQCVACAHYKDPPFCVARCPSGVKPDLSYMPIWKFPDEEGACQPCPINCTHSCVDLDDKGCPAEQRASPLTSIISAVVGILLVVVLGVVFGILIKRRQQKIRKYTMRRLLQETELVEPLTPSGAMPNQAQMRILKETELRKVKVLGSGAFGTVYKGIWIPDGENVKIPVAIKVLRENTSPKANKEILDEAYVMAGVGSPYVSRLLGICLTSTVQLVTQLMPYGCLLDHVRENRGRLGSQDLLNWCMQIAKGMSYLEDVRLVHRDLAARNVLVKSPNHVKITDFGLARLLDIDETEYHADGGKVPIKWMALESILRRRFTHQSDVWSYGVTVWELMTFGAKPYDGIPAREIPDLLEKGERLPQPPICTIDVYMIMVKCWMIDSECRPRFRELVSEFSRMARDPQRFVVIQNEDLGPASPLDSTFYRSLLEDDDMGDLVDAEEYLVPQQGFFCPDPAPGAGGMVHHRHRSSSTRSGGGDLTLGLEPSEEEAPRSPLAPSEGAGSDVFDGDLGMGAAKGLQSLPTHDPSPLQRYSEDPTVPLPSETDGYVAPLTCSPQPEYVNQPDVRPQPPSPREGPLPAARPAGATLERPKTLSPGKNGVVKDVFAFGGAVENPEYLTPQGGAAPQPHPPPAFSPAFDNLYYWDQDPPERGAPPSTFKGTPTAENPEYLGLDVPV
Method: as §1, §2

HER2 YVMA (Ba/F3 cells) = target: T5, HER2 YVMA (Ba/F3 cells) (Homo sapiens, UniProt P04626, INS775YVMA); test: MTS assay, Ba/F3 cells, HER2 YVMA
T5 construct: expressed in transfected cells; host or cells: Ba/F3
T5 sequence (P04626 with tags, fused parts or gaps INS775YVMA): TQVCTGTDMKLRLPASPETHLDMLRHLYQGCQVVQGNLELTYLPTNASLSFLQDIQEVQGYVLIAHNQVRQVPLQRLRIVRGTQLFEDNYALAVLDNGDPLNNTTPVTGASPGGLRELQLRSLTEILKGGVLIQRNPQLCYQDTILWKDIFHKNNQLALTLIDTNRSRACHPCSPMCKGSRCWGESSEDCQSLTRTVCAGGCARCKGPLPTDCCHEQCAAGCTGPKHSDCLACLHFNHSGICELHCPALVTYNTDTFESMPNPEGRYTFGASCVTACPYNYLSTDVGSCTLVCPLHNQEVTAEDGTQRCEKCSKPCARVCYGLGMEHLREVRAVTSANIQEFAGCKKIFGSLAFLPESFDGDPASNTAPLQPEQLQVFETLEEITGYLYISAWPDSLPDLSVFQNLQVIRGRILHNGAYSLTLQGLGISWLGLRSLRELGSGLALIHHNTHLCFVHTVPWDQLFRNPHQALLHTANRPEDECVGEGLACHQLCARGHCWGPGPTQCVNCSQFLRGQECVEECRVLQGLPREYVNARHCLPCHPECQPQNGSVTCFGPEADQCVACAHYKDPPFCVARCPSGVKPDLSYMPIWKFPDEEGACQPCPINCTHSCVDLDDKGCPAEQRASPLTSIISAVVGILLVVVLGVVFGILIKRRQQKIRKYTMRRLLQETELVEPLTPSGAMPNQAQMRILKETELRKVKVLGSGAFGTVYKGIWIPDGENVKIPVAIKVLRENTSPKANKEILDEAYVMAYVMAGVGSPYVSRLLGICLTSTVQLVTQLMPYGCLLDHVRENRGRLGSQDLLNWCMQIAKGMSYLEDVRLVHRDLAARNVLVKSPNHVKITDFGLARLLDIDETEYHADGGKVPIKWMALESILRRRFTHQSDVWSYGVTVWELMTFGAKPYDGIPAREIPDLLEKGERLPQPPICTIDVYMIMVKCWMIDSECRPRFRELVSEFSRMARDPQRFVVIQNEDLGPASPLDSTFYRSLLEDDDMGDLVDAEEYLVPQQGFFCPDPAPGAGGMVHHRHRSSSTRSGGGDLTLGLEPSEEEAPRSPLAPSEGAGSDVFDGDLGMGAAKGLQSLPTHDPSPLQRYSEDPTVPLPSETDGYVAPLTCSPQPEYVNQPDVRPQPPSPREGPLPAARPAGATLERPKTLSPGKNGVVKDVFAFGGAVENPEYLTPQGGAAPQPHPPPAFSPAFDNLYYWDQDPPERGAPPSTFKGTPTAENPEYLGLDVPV
Method: as §1, §2

HER2 GSP (Ba/F3 cells) = target: T6, HER2 GSP (Ba/F3 cells) (Homo sapiens, UniProt P04626, INS780GSP); test: MTS assay, Ba/F3 cells, HER2 GSP
T6 construct: expressed in transfected cells; host or cells: Ba/F3
Method: as §1, §2

T1 sequence (P00533 25-1210): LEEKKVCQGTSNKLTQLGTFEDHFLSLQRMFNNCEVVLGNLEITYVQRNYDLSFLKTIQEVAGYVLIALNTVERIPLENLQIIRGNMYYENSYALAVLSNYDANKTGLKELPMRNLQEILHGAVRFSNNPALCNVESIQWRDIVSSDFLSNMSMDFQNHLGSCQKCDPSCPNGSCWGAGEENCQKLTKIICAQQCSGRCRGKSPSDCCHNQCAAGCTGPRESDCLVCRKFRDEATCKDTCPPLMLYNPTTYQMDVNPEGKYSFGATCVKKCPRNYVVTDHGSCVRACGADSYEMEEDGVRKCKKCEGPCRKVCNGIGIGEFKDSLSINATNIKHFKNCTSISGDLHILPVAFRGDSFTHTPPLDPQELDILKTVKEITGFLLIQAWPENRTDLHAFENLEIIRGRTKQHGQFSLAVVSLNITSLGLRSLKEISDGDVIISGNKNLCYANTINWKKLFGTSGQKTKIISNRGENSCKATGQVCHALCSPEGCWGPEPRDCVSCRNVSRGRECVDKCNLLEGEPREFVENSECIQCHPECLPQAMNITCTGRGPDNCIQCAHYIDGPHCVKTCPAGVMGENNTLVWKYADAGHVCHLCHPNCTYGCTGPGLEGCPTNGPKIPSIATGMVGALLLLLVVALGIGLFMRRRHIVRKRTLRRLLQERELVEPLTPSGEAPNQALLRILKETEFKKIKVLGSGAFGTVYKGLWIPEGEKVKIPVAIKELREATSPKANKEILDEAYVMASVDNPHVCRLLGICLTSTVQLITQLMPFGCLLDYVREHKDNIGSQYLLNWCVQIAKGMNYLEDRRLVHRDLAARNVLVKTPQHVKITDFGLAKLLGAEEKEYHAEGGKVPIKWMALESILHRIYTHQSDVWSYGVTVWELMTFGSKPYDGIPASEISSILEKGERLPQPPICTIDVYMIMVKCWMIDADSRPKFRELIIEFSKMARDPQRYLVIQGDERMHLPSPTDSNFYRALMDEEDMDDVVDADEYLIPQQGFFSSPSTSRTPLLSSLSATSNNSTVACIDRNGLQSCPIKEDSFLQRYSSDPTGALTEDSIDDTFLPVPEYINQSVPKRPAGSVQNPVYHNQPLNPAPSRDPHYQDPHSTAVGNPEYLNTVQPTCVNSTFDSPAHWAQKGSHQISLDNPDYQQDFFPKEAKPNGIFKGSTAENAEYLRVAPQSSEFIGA

Compound | IC50 (EFGR WT (Ba/F3 cells)) | IC50 (EFGR SVD (Ba/F3 cells)) | IC50 (EFGR ASV (Ba/F3 cells)) | IC50 (HER2 WT (Ba/F3 cells)) | IC50 (HER2 YVMA (Ba/F3 cells)) | IC50 (HER2 GSP (Ba/F3 cells))
C=CC(=O)N1CCC[C@@H](n2nc(C(=O)Nc3ccc(Cn4ccnc4)c(C)c3)c3c(N)ncnc32)C1 [Compound 4] | 7.16 µM | 6.04 µM | 4.53 µM | 3.85 µM | 3.16 µM | 1.44 µM
C=CC(=O)N1CCC[C@@H](n2nc(C(=O)Nc3ccc(C(=O)N4CCn5ccnc5C4)c(C)c3)c3c(N)ncnc32)C1 [Compound 6] | 9.42 µM | 7.84 µM | 6.81 µM | 5.79 µM | 7.56 µM | 5.64 µM
C=CC(=O)N1CCC[C@@H](n2nc(C(=O)Nc3cc(C)cc(CC(=O)N(C)C)c3)c3c(N)ncnc32)C1 [Compound 5] | 8.96 µM | 7.62 µM | 5.72 µM | 4.08 µM | 4.47 µM | 2.39 µM
C=CC(=O)N1CCC[C@@H](n2nc(C(=O)Nc3ccc(-n4ccnc4)c(C)c3)c3c(N)ncnc32)C1 [Compound 10] |  |  |  | 3.43 µM | 0.58 µM | 
C=CC(=O)N1CCC[C@@H](n2nc(C(=O)Nc3ccc(C(=O)N4CCn5ncnc5C4)c(C)c3)c3c(N)ncnc32)C1 [Compound 7] | 8.79 µM | 7.72 µM | 6.02 µM | 6.3 µM | 8.84 µM | 6.29 µM
C=CC(=O)N1CCC[C@@H](n2nc(C(=O)Nc3ccc(CN4CCn5ncnc5C4)c(C)c3)c3c(N)ncnc32)C1 [Compound 8] | 9.46 µM | 6.75 µM | 4.27 µM | 3.24 µM | 1.85 µM | 1.39 µM
C=CC(=O)N1CCC[C@@H](n2nc(C(=O)Nc3ccc(Cn4cncn4)c(C)c3)c3c(N)ncnc32)C1 [Compound 11] | > 10 µM |  |  | 5.96 µM | 1.33 µM | 

The next molecules have a lower IC50 (HER2 WT (Ba/F3 cells)) than those just listed; values first:

IC50 (EFGR WT (Ba/F3 cells)) | IC50 (EFGR SVD (Ba/F3 cells)) | IC50 (EFGR ASV (Ba/F3 cells)) | IC50 (HER2 WT (Ba/F3 cells)) | IC50 (HER2 YVMA (Ba/F3 cells)) | IC50 (HER2 GSP (Ba/F3 cells)) | Compound
7.92 µM | 5.59 µM | 1.98 µM | 2.63 µM | 1.38 µM | 1.29 µM | C=CC(=O)N1CCC[C@@H](n2nc(C(=O)Nc3ccc(CN4CCn5ccnc5C4)c(C)c3)c3c(N)ncnc32)C1 [Compound 9]
3.27 µM | 3.98 µM | 2.24 µM | 0.193 µM | 0.0559 µM | 0.0958 µM | C=CC(=O)N1CCC[C@@H](n2nc(C(=O)Nc3ccc(Oc4ccn5ncnc5c4)c(C)c3)c3c(N)ncnc32)C1 [Compound 2, (R)—N—(4-([1,2,4]triazolo[1,5-a]pyridin-7-yloxy)-3-methylphenyl)-1-(1-acryloylpiperidin-3-yl)-4-amino-1H-pyrazolo[3,4-d]pyrimidine-3-carboxamide]
0.921 µM | 4.48 µM | 3.82 µM | 0.164 µM | 0.206 µM | 0.0643 µM | C=CC(=O)N1CCC[C@@H](n2nc(C(=O)Nc3ccc(CC(=O)N(C)C)c(C)c3C)c3c(N)ncnc32)C1 [TAS0728, reference compound]
1.38 µM | 2.62 µM | 1.81 µM | 0.111 µM | 0.0322 µM | 0.0567 µM | C=CC(=O)N1CCC[C@@H](n2nc(C(=O)Nc3ccc(Oc4ccn5ncnc5c4)c(C)c3C)c3c(N)ncnc32)C1 [Compound 1, (R)—N—(4-([1,2,4]triazolo[1,5-a]pyridin-7-yloxy)-2,3-dimethylphenyl)-1-(1-acryloylpiperidin-3-yl)-4-amino-1H-pyrazolo[3,4-d]pyrimidine-3-carboxamide]
2.11 µM | 2.61 µM | 1.46 µM | 0.0981 µM | 0.0455 µM | 0.0786 µM | C=CC(=O)N1CCC[C@@H](n2nc(C(=O)Nc3ccc(Oc4ccn5ncnc5c4)c(Cl)c3)c3c(N)ncnc32)C1 [Compound 3, (R)—N—(4-([1,2,4]triazolo[1,5-a]pyridin-7-yloxy)-3-chlorophenyl)-1-(1-acryloylpiperidin-3-yl)-4-amino-1H-pyrazolo[3,4-d]pyrimicline-3-carboxamide]
